Assay results as given in the NIST ThermoML archive (doi:10.1016/j.jct.2012.08.030).

Legend:
[1] = xn = mol fraction of the nth substance listed; conditions: 101.3 kPa, Liquid; for speed of sound: Sing-around technique in a fixed-path interferometer; for mass density: Vibrating tube method
[2] = refractive index (Na D-line) (dimensionless); xn = mol fraction of the nth substance listed; conditions: 101.3 kPa, Liquid, Standard Abbe refractometry

CCCCn1cc[n+](C)c1.COS(=O)(=O)[O-] [1-butyl-3-methylimidazolium methyl sulfate] + CCCCO
Conditions	mass density, [1] [kg/m3]	refractive index, [2]	speed of sound, [1] [m/s]
298.15 K, x1 = 0.0425	843.506	1.40525	1261.4
298.15 K, x1 = 0.0922	882.293	1.41307	1285.1
298.15 K, x1 = 0.1929	948.953	1.42652	1333.2
298.15 K, x1 = 0.2926	1002.76	1.43736	1379.5
298.15 K, x1 = 0.3915	1047.2	1.44629	1424.2
298.15 K, x1 = 0.4981	1087.51	1.45433	1471
298.15 K, x1 = 0.5997	1120.12	1.4608	1513.5
298.15 K, x1 = 0.7996	1172.03	1.47095	1589.4
298.15 K, x1 = 1	1212.06	1.47824	1654.6
303.15 K, x1 = 0.0425	839.735	1.40335	1245.6
303.15 K, x1 = 0.0922	878.554	1.41133	1270
303.15 K, x1 = 0.1929	945.272	1.42489	1318.8
303.15 K, x1 = 0.2926	999.143	1.43578	1365.8
303.15 K, x1 = 0.3915	1043.64	1.44477	1411
303.15 K, x1 = 0.4981	1084.01	1.45286	1458.1
303.15 K, x1 = 0.5997	1116.66	1.45937	1500.9
303.15 K, x1 = 0.7996	1168.59	1.46959	1577.1
303.15 K, x1 = 1	1208.7	1.47704	1642.2
308.15 K, x1 = 0.0425	835.931	1.40141	1229.6
308.15 K, x1 = 0.0922	874.794	1.40946	1254.6
308.15 K, x1 = 0.1929	941.58	1.42315	1304.3
308.15 K, x1 = 0.2926	995.525	1.43415	1351.8
308.15 K, x1 = 0.3915	1040.09	1.44321	1397.5
308.15 K, x1 = 0.4981	1080.52	1.45136	1445.1
308.15 K, x1 = 0.5997	1113.21	1.45792	1488.2
308.15 K, x1 = 0.7996	1165.14	1.46821	1564.7
308.15 K, x1 = 1	1205.35	1.47577	1630
313.15 K, x1 = 0.0425	832.1	1.39946	1213.7
313.15 K, x1 = 0.0922	871.02	1.40762	1239.3
313.15 K, x1 = 0.1929	937.88	1.42144	1289.8
313.15 K, x1 = 0.2926	991.896	1.43253	1338
313.15 K, x1 = 0.3915	1036.54	1.44166	1384.2
313.15 K, x1 = 0.4981	1077.03	1.44987	1432.3
313.15 K, x1 = 0.5997	1109.78	1.45646	1475.7
313.15 K, x1 = 0.7996	1161.71	1.46682	1552.6
313.15 K, x1 = 1	1202.01	1.47443	1617.9

CCCCn1cc[n+](C)c1.COS(=O)(=O)[O-] [1-butyl-3-methylimidazolium methyl sulfate] + CCCO
Conditions	mass density, [1] [kg/m3]	refractive index, [2]	speed of sound, [1] [m/s]
298.15 K, x1 = 0.0482	852.432	1.39591	1242.8
298.15 K, x1 = 0.0965	896.455	1.40632	1276
298.15 K, x1 = 0.1937	967.583	1.42298	1338.1
298.15 K, x1 = 0.2929	1023.11	1.43588	1394.2
298.15 K, x1 = 0.3903	1066.53	1.44583	1443.9
298.15 K, x1 = 0.4958	1104.3	1.45448	1491.7
298.15 K, x1 = 0.59	1132.04	1.46078	1529.8
298.15 K, x1 = 0.6907	1156.89	1.46636	1566.3
298.15 K, x1 = 0.7981	1179.34	1.47134	1601.1
298.15 K, x1 = 0.8932	1196.47	1.47515	1629
298.15 K, x1 = 0.951	1205.24	1.4776	1643.1
298.15 K, x1 = 1	1212.06	1.47824	1654.6
303.15 K, x1 = 0.0482	848.503	1.39407	1227
303.15 K, x1 = 0.0965	892.596	1.40459	–
303.15 K, x1 = 0.1937	963.817	1.42138	1323.8
303.15 K, x1 = 0.2929	1019.43	1.43433	1380.5
303.15 K, x1 = 0.3903	1062.93	1.44433	1430.6
303.15 K, x1 = 0.4958	1100.77	1.45302	1478.8
303.15 K, x1 = 0.59	1128.56	1.45937	1517.2
303.15 K, x1 = 0.6907	1153.44	1.46499	1553.9
303.15 K, x1 = 0.7981	1175.92	1.46997	1588.9
303.15 K, x1 = 0.8932	1192.93	1.47378	1616.9
303.15 K, x1 = 0.951	1201.87	1.47628	1630.9
303.15 K, x1 = 1	1208.7	1.47704	1642.2
308.15 K, x1 = 0.0482	844.545	1.39212	1211.1
308.15 K, x1 = 0.0965	888.716	1.40276	1245.5
308.15 K, x1 = 0.1937	960.044	1.41966	1309.3
308.15 K, x1 = 0.2929	1015.75	1.43273	1366.6
308.15 K, x1 = 0.3903	1059.34	1.4428	1417.3
308.15 K, x1 = 0.4958	1097.25	1.45154	1465.8
308.15 K, x1 = 0.59	1125.08	1.45793	1504.5
308.15 K, x1 = 0.6907	1150	1.46358	1541.4
308.15 K, x1 = 0.7981	1172.52	1.46856	1576.5
308.15 K, x1 = 0.8932	1189.33	1.47238	1604.7
308.15 K, x1 = 0.951	1198.5	1.47491	1618.7
308.15 K, x1 = 1	1205.35	1.47577	1630
313.15 K, x1 = 0.0482	840.564	1.39019	1195.2
313.15 K, x1 = 0.0965	884.815	1.4009	1230.2
313.15 K, x1 = 0.1937	956.26	1.41794	1294.9
313.15 K, x1 = 0.2929	1012.08	1.43111	1352.8
313.15 K, x1 = 0.3903	1055.75	1.44126	1404
313.15 K, x1 = 0.4958	1093.74	1.45008	1453
313.15 K, x1 = 0.59	1121.62	1.45649	1492
313.15 K, x1 = 0.6907	1146.58	1.46215	1529.1
313.15 K, x1 = 0.7981	1169.13	1.46715	1564.4
313.15 K, x1 = 0.8932	1185.78	1.4709	1592.5
313.15 K, x1 = 0.951	1195.15	1.47354	1606.6
313.15 K, x1 = 1	1202.01	1.47443	1617.9
